Assay results reported in PMC4721142, “Randomized controlled studies on the efficacy of antiarthritic agents in inhibiting cartilage degeneration and pain associated with progression of osteoarthritis in the rat” (Arthritis Research & Therapy, 2016).
“And” between values parts separate entries of the source, which are not always exact repeats. Equal entries are not always repeated.

Key:
[1] = tested on: MIA rat model of OA; assay: MIA trial 3 digital Randall-Selitto test (weekly i.a. clonidine 4.5 μg, tacrolimus 30 ng, fluocinolone 15 ng, meloxicam 100 μg, tranilast 500 ng, TH 150 μg; clonidine 100 μg/kg s.c.); type: in vivo
Protocol: The digital Randall-Selitto (dRS) test is said to be a reliable and repeatable measure of neuropathic, bone, and inflammatory pain behavior in several different models, including those of arthritic or joint pain [29, 31, 32]. Baseline and posttreatment values were evaluated using a dRS test device (IITC Life Science, Woodland Hills, CA, USA). Animals were allowed to acclimate to the testing room before all experimentation and for a minimum of 30 minutes before testing. To ensure that their hind limbs were accessible, the animals were gently suspended in a restraint sling. The joint compression threshold was measured once at each time point for the ipsilateral and contralateral knee joints. Pressure was applied gradually over approximately 10 seconds to the medial and lateral aspects of the knee joint. Measurements were taken from the first observed behavior of vocalization, struggle, or withdrawal. A cutoff value of 600 g was used to prevent injury to the animal.
Following isoflurane anesthesia, 50 μl (2 mg) of MIA was injected into the synovial space of the left knee. Animals were randomly assigned to groups, and pain behavior was assessed 7, 14, 21, and 28 days following MIA injection and intervention using WB with the Stoelting incapacitance meter (trial 1) or the dRS test (trials 2 and 3). […] Animals received MIA treatment and then saline control or therapeutic. […] Histopathology was performed at each time point and at study termination. All studies were conducted in accordance with the International Association for the Study of Pain Guidelines and were approved by the Algos Therapeutics, Inc. Institutional Animal Care and Use Committee (IACUC) before initiation. Those running the studies were blind to the treatments. See Additional file 1 for further details. […]
struggle or withdrawal. A cut-off value of 600 g was used to prevent injury to the animal. The mean and standard error of the mean (SEM) were determined for each treatment group.
Statistical significance was assigned as p ≤ 0.05. The stability of the vehicle group over time was assessed on each testing day (Days 7, 14, 21, and 28) using repeated measures one-way analysis of variance (ANOVA) comparing joint compression thresholds at each experimental time point on a given testing day versus that testing day’s pre-treatment value. Osteoarthritis-related pain in the vehicle group was estimated at each time point on each testing day by comparing ipsilateral (injured) to contralateral (normal) joint compression thresholds using paired t-tests. The progression of osteoarthritis-related pain in the vehicle group was estimated by comparing pre-treatment joint compression thresholds on each testing day versus pre-MIA measurements using repeated measures one-way ANOVA. […]
thresholds at each experimental time point on a given testing day with vehicle treated animals using an unpaired t-test. The acute effect of Tacrolimus was analyzed by comparing joint compression thresholds at each time point on a given testing day with the corresponding pre-treatment baseline values using repeated measures one-way ANOVA and compared to vehicle treated animals using […]
values using repeated measures one-way ANOVA. Chronic effects were analyzed by comparing pre-treatment joint compression thresholds on each testing day versus the appropriate Day 7 pre-treatment values using repeated measures one-way ANOVA and by comparing pre-treatment joint compression thresholds with vehicle treated animals on each testing day using an unpaired t-test or one-way ANOVA. Day 7 pre-treatment joint compression thresholds between all groups were assessed using one-way ANOVA. The Dunnett’s multiple comparison post hoc test was used when […]
dosing were housed three per cage. Animals had free access to food and water and were maintained […]
The animal colony was maintained at approximately 21 °C. All experiments were conducted in accordance with the International Association for the Study of Pain Guidelines.

[2] = tested on: MIA rat model of OA; assay: MIA trial 2 histopathology (same doses as dRS test); type: in vivo; parameters: key to Total joint score with matrix / Total joint score w/o matrix: sum of cartilage degeneration, osteophyte and bone scores (± matrix); conditions: group mean
Protocol: Following functional testing in the first and second MIA trials, femurs were fixed in paraformaldehyde, processed, sectioned, stained with hematoxylin and eosin or Safranin O at Premier Laboratory (Longmont, CO, USA), and analyzed by a veterinary pathologist. For MIA trial 1, sections were evaluated for the percentage area of chondrocyte necrosis and/or proteolytic degeneration using a 5-point scale with 0 = none; 1 being <10 %; 2 = 10–30 %; 3 = 30–60 %; 4 = 60–90 %; and 5 being >90 %. Other characteristics of inflammation, proliferation, and integrity of the synovium, subchondral bone, and articular cartilage were scored as normal, minimal, mild, moderate, marked, or increased or decreased when severity was not graded. MIA trial 2 was measured similarly and then cross-checked according to the methods used for MIA trial 3 (see text below).
For MIA trial 3, joints were fixed and toluidine blue–stained sections of the rat knees were comprehensively analyzed from test and control subjects as detailed in Additional file 1. Briefly, a 5-point cartilage matrix score was derived based upon (1) approximate percentage of total loss of articular chondrocytes for each of four articular surfaces, (2) estimated proteoglycan loss (via Safranin O staining), and (3) loss of interstitial matrix. Chondrocyte necrosis and proteolytic degeneration of the femurs were scored on a 5-point scale as in trial 1. A femoral cartilage degeneration score and a three-zone sum of the tibial cartilage degeneration scores (mean of three levels) were also summed to create a total cartilage degeneration score. The mean osteophyte score for each joint was added to this value to create a total joint score with matrix. Other parameters assessed included synovial membrane inflammation and proliferation. Representative images from each group were also collected (see, e.g., Fig. 4 and Additional file 1: Fig. S55, Trial 3).
The histopathology for the first MIA trial was performed by Premier Laboratories (Dr. Michael Hawes, APS, Pathologist). Treatments were masked during the assessment. Chondrocyte necrosis and proteolytic degeneration of the femurs were scored on a 5 point scale with 0 = None; 1 = <10%; […]
proteoglycan content (safranin O staining), synovial membrane inflammation and proliferation, subchondral bone, and articular cartilage (as indicated in Supplementary methods). Characteristics within these categories were scored as normal, minimal, mild, moderate, marked, or +/- when severity was not graded. Slides from Trial 2 were further reviewed by Dr. Bendele using the analytical method described below for the MMT/MCLT model to confirm any conclusions.
For the histopathology of the MIA model in Trial 3, completed by Bolder BioPATH (and Dr.
Bendele), a tolouidine blue stained slide containing both halves of the joint was comprehensively analyzed from test and control subjects. Approximate % of total loss of articular chondrocytes, loss of proteoglycan and loss of collagenous matrix were determined for each articular surface (medial tibial plateau (MTP), lateral tibial plateau (LTP), medial femoral condyle (MFC), and lateral femoral condyle (LFC). Chondrocyte loss was quantified by estimating the area of cartilage in which there were no apparently viable chondrocytes and proteoglycan loss was quantified by estimating differences in intensity of toluidine blue matrix staining. Loss of interstitial matrix was an indication of disruption and diminished type II collagen. Based on the mean % loss for the four surfaces in these parameters, a five point matrix score was utilized with the subchondral bone resorption, subchondral bone sclerosis and osteophyte scores to achieve a total joint score.
Histopathology MMT/MCLT Model

[3] = tacrolimus 0.3 mg/kg, other drugs single dose

## Clc1cccc(Cl)c1N=C1NCCN1 [Clonidine]
[1]; day 7
  dRS, hours after dosing with significant difference: 1 h
[2]; [3]
  Bone resorption score: 3.7
  Bone resorption, percent of surface, LFC: 87%
  Bone resorption, percent of surface, LTP: 53%
  Bone resorption, percent of surface, MFC: 63%
  Bone resorption, percent of surface, MTP: 73%
  Bone resorption, percent of surface, mean: 69%
  Cartilage matrix damage score: 3.7 and 3.7 ± 0.3
  Mean of all cartilage loss: 67%
  Osteophyte measure: 866.7 µm
  Osteophyte score: 4.0
  Subchondral bone sclerosis score: 0.3
  Total joint score w/o matrix: 8.0
  Total joint score with matrix: 11.7 and 11.7 ± 0.9

## COc1cc(/C=C/C(=O)CC(=O)/C=C/c2ccc(O)c(OC)c2)ccc1O [Curcumin, Diferuloylmethane]
[2]; [3]
  Bone resorption score: 4.8
  Bone resorption, percent of surface, LFC: 100%
  Bone resorption, percent of surface, LTP: 100%
  Bone resorption, percent of surface, MFC: 88%
  Bone resorption, percent of surface, MTP: 90%
  Bone resorption, percent of surface, mean: 94%
  Cartilage matrix damage score: 5.0 and 5.0 ± 0.0
  Mean of all cartilage loss: 89%
  Osteophyte measure: 1000.0 µm
  Osteophyte score: 4.8
  Subchondral bone sclerosis score: 0.0
  Total joint score w/o matrix: 9.5
  Total joint score with matrix: 14.5 and 14.5 ± 0.3

## CC1(C)O[C@@H]2C[C@H]3[C@@H]4C[C@H](F)C5=CC(=O)C=C[C@]5(C)[C@@]4(F)[C@@H](O)C[C@]3(C)[C@]2(C(=O)CO)O1 [Fluocinolone, Fluocinolone Acetonide]
[1]; day 7
  dRS, hours after dosing with significant difference: 1 h
[1]; day 28, negative = worse
  dRS, hours after dosing with significant difference: -24 h
[2]; [3]
  Bone resorption score: 3.0
  Bone resorption, percent of surface, LFC: 65%
  Bone resorption, percent of surface, LTP: 58%
  Bone resorption, percent of surface, MFC: 38%
  Bone resorption, percent of surface, MTP: 45%
  Bone resorption, percent of surface, mean: 51%
  Cartilage matrix damage score: 3.3 and 3.3 ± 0.8
  Mean of all cartilage loss: 60%
  Osteophyte measure: 600.0 µm
  Osteophyte score: 3.0
  Subchondral bone sclerosis score: 0.0
  Total joint score w/o matrix: 6.0
  Total joint score with matrix: 9.3 and 9.3 ± 2.5

## C=CC[C@@H]1/C=C(\C)C[C@H](C)C[C@H](OC)[C@H]2O[C@@](O)(C(=O)C(=O)N3CCCC[C@H]3C(=O)O[C@H](/C(C)=C/[C@@H]3CC[C@@H](O)[C@H](OC)C3)[C@H](C)[C@@H](O)CC1=O)[C@H](C)C[C@@H]2OC [Tacrolimus]
[2]; [3]
  Bone resorption score: 4.3
  Bone resorption, percent of surface, LFC: 88%
  Bone resorption, percent of surface, LTP: 88%
  Bone resorption, percent of surface, MFC: 70%
  Bone resorption, percent of surface, MTP: 94%
  Bone resorption, percent of surface, mean: 85%
  Cartilage matrix damage score: 3.8 and 3.8 ± 0.6
  Mean of all cartilage loss: 69%
  Osteophyte measure: 700.0 µm
  Osteophyte score: 3.5
  Subchondral bone sclerosis score: 0.0
  Total joint score w/o matrix: 7.8
  Total joint score with matrix: 11.5 and 11.5 ± 1.7
[2]; tacrolimus 0.6 mg/kg i.p.
  Bone resorption score: 3.8
  Bone resorption, percent of surface, LFC: 80%
  Bone resorption, percent of surface, LTP: 70%
  Bone resorption, percent of surface, MFC: 63%
  Bone resorption, percent of surface, MTP: 68%
  Bone resorption, percent of surface, mean: 70%
  Cartilage matrix damage score: 3.8 and 3.8 ± 0.6
  Mean of all cartilage loss: 62%
  Osteophyte measure: 550.0 µm
  Osteophyte score: 2.8
  Subchondral bone sclerosis score: 0.0
  Total joint score w/o matrix: 6.5
  Total joint score with matrix: 10.3 and 10.3 ± 2.1

## COc1ccc(C=CC(=O)Nc2ccccc2C(=O)O)cc1OC [Tranilast, N-(3′,4′-dimethoxycinnamoyl)anthranilic acid]
[1]; day 14
  dRS, hours after dosing with significant difference: 1 h
[1]; day 21
  dRS, hours after dosing with significant difference: 1 h

## CC(C)(C)CC(=O)OCC(=O)[C@@]12OC(C)(C)O[C@@H]1C[C@H]1[C@@H]3CCC4=CC(=O)C=C[C@]4(C)[C@@]3(F)[C@@H](O)C[C@@]12C [Triamcinolone hexacetonide]
[1]; day 7
  dRS, hours after dosing with significant difference: 3 h
[1]; day 14
  dRS, hours after dosing with significant difference: 1 h
[1]; day 21
  dRS, hours after dosing with significant difference: Pretrt^f
[1]; day 28, negative = worse
  dRS, hours after dosing with significant difference: -24 h
